Laboratory results as given in US9179678B2, “Substituted [1,2,4]triazoles and substituted tetrazoles as herbicides” (SYNGENTA LIMITED, priority 2012, dated 2015).

What was measured:
Format in all cases: in vivo
[1] = tested on: Alopecurus myosuroides (ALOMY); assay: Post-emergence glasshouse herbicide test; conditions: POST Application, 1000 g/h, after 13 days
Outline: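 In this glasshouse post-emergence test, ALOMY plants were cultivated in standard soil for 8 days under controlled conditions (24/16° C. day/night, 14 hours light, 65% humidity). They were then treated with a spray derived from an acetone/water (50:50) formulation with 0.5% Tween 20, grown on with watering twice daily, and rated for percentage damage after 13 days.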

[2] = tested on: Echinochloa crus-galli (ECHCG); assay: Post-emergence glasshouse herbicide test; conditions: POST Application, 1000 g/h, after 13 days
[3] = tested on: Amaranthus retoflexus (AMARE); assay: Post-emergence glasshouse herbicide test; conditions: POST Application, 1000 g/h, after 13 days
[4] = tested on: Ipomoea hederacea (IPOHE); assay: Post-emergence glasshouse herbicide test; conditions: POST Application, 1000 g/h, after 13 days
Solanum nigrum (SOLNI) [5] = assay: Post-emergence glasshouse herbicide test; conditions: POST Application, 1000 g/h, after 13 days
Outline: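 This glasshouse post-emergence herbicide test used Solanum nigrum plants sown in standard soil and cultivated for 8 days under controlled conditions (24/16° C. day/night, 14 hours light, 65% humidity). An aqueous spray from an acetone/water (50:50) solution with 0.5% Tween 20 was applied. Plants were watered twice daily, and damage to each plant was assessed as a percentage 13 days later.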

[6] = tested on: Alopecurus myosuroides (ALOMY); assay: Pre-emergence glasshouse herbicide test; conditions: PRE Application, 1000 g/h, after 13 days
Outline: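 This pre-emergence glasshouse test used pots of standard soil sown with ALOMY seed and cultivated for one day under controlled conditions of 24/16° C., 14 hours light and 65% humidity. An aqueous spray from an acetone/water (50:50) formulation with 0.5% Tween 20 was applied. After 13 days of further growth with twice-daily watering, plant damage was rated as a percentage.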

[7] = tested on: Echinochloa crus-galli (ECHCG); assay: Pre-emergence glasshouse herbicide test; conditions: PRE Application, 1000 g/h, after 13 days
[8] = tested on: Amaranthus retoflexus (AMARE); assay: Pre-emergence glasshouse herbicide test; conditions: PRE Application, 1000 g/h, after 13 days
[9] = tested on: Ipomoea hederacea (IPOHE); assay: Pre-emergence glasshouse herbicide test; conditions: PRE Application, 1000 g/h, after 13 days
Solanum nigrum (SOLNI) [10] = assay: Pre-emergence glasshouse herbicide test; conditions: PRE Application, 1000 g/h, after 13 days
Setaria faberi (SETFA) [11] = assay: Pre-emergence glasshouse herbicide test; conditions: PRE Application, 1000 g/h, after 13 days
Setaria faberi (SETFA) [12] = assay: Post-emergence glasshouse herbicide test; conditions: POST Application, 1000 g/h, after 13 days
Outline: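 This post-emergence glasshouse herbicide test used SETFA plants raised in pots of standard soil for 8 days under controlled conditions (24/16° C., 14 hours light, 65% humidity). An aqueous spray made from acetone/water (50:50) with 0.5% Tween 20 was applied. Plants were watered twice daily, and percentage plant damage was assessed 13 days later.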

Cn1nnnc1NC(=O)c1cc2cnc(Cl)cc2n(-c2ccccc2)c1=O [Compound 2.001]
percentage damage caused to the plant, ALOMY [1]: 1 (1=0-19%)
percentage damage caused to the plant, ECHCG [2]: 1 (1=0-19%)
percentage damage caused to the plant, AMARE [3]: 5 (5=80-100%)
percentage damage caused to the plant, IPOHE [4]: 5 (5=80-100%)
percentage damage caused to the plant, SOLNI (Solanum nigrum (SOLNI) [5]): 5 (5=80-100%)
percentage damage caused to the plant, ALOMY [6]: 1 (1=0-19%)
percentage damage caused to the plant, ECHCG [7]: 1 (1=0-19%)
percentage damage caused to the plant, AMARE [8]: 5 (5=80-100%)
percentage damage caused to the plant, IPOHE [9]: 2 (2=20-39%)
percentage damage caused to the plant, SOLNI (Solanum nigrum (SOLNI) [10]): 4 (4=60-79%)
percentage damage caused to the plant, SETFA (Setaria faberi (SETFA) [11]): 1 (1=0-19%)
percentage damage caused to the plant, SETFA (Setaria faberi (SETFA) [12]): 1 (1=0-19%)

Cn1nnnc1NC(=O)c1nc2ccccc2n(C)c1=O [Compound 5.002]
percentage damage caused to the plant, ALOMY [1]: 1 (1=0-19%)
percentage damage caused to the plant, ECHCG [2]: 4 (4=60-79%)
percentage damage caused to the plant, AMARE [3]: 5 (5=80-100%)
percentage damage caused to the plant, IPOHE [4]: 5 (5=80-100%)
percentage damage caused to the plant, SOLNI (Solanum nigrum (SOLNI) [5]): 5 (5=80-100%)
percentage damage caused to the plant, ALOMY [6]: 1 (1=0-19%)
percentage damage caused to the plant, ECHCG [7]: 5 (5=80-100%)
percentage damage caused to the plant, AMARE [8]: 5 (5=80-100%)
percentage damage caused to the plant, IPOHE [9]: 5 (5=80-100%)
percentage damage caused to the plant, SOLNI (Solanum nigrum (SOLNI) [10]): 5 (5=80-100%)
percentage damage caused to the plant, SETFA (Setaria faberi (SETFA) [11]): 1 (1=0-19%)
percentage damage caused to the plant, SETFA (Setaria faberi (SETFA) [12]): 1 (1=0-19%)

Cn1nnnc1NC(=O)c1nc2ccc(C(F)(F)F)cc2n(-c2ccccc2)c1=O [Compound 5.006]
percentage damage caused to the plant, ALOMY [1]: 3 (3=40-59%)
percentage damage caused to the plant, ECHCG [2]: 4 (4=60-79%)
percentage damage caused to the plant, AMARE [3]: 5 (5=80-100%)
percentage damage caused to the plant, IPOHE [4]: 5 (5=80-100%)
percentage damage caused to the plant, SOLNI (Solanum nigrum (SOLNI) [5]): 5 (5=80-100%)
percentage damage caused to the plant, ALOMY [6]: 3 (3=40-59%)
percentage damage caused to the plant, ECHCG [7]: 4 (4=60-79%)
percentage damage caused to the plant, AMARE [8]: 5 (5=80-100%)
percentage damage caused to the plant, IPOHE [9]: 4 (4=60-79%)
percentage damage caused to the plant, SOLNI (Solanum nigrum (SOLNI) [10]): 5 (5=80-100%)
percentage damage caused to the plant, SETFA (Setaria faberi (SETFA) [11]): 3 (3=40-59%)
percentage damage caused to the plant, SETFA (Setaria faberi (SETFA) [12]): 4 (4=60-79%)

Cn1nnnc1NC(=O)c1nc2ccccc2n(-c2ccc(Cl)c(C(F)(F)F)c2)c1=O [Compound 5.037]
percentage damage caused to the plant, ALOMY [1]: 4 (4=60-79%)
percentage damage caused to the plant, ECHCG [2]: 5 (5=80-100%)
percentage damage caused to the plant, AMARE [3]: 5 (5=80-100%)
percentage damage caused to the plant, IPOHE [4]: 5 (5=80-100%)
percentage damage caused to the plant, SOLNI (Solanum nigrum (SOLNI) [5]): 5 (5=80-100%)
percentage damage caused to the plant, ALOMY [6]: 4 (4=60-79%)
percentage damage caused to the plant, ECHCG [7]: 2 (2=20-39%)
percentage damage caused to the plant, AMARE [8]: 5 (5=80-100%)
percentage damage caused to the plant, IPOHE [9]: 5 (5=80-100%)
percentage damage caused to the plant, SOLNI (Solanum nigrum (SOLNI) [10]): 5 (5=80-100%)
percentage damage caused to the plant, SETFA (Setaria faberi (SETFA) [11]): 5 (5=80-100%)
percentage damage caused to the plant, SETFA (Setaria faberi (SETFA) [12]): 5 (5=80-100%)

Cn1nnnc1NC(=O)c1nc2ccccc2n(-c2cccc(C(F)(F)F)c2)c1=O [Compound 5.026]
percentage damage caused to the plant, ALOMY [1]: 5 (5=80-100%)
percentage damage caused to the plant, ECHCG [2]: 5 (5=80-100%)
percentage damage caused to the plant, AMARE [3]: 5 (5=80-100%)
percentage damage caused to the plant, IPOHE [4]: 5 (5=80-100%)
percentage damage caused to the plant, SOLNI (Solanum nigrum (SOLNI) [5]): 5 (5=80-100%)
percentage damage caused to the plant, ALOMY [6]: 5 (5=80-100%)
percentage damage caused to the plant, ECHCG [7]: 5 (5=80-100%)
percentage damage caused to the plant, AMARE [8]: 5 (5=80-100%)
percentage damage caused to the plant, IPOHE [9]: 5 (5=80-100%)
percentage damage caused to the plant, SOLNI (Solanum nigrum (SOLNI) [10]): 5 (5=80-100%)
percentage damage caused to the plant, SETFA (Setaria faberi (SETFA) [11]): 5 (5=80-100%)
percentage damage caused to the plant, SETFA (Setaria faberi (SETFA) [12]): 5 (5=80-100%)
